Peptide text beside a SMILES is read from it.
Target: T1, human sweet taste receptor (hT1R2+hT1R3) (Homo sapiens, UniProt Q7RTX0+Q8TE23)
T1 construct: includes all portions of respective subunits, that is, all regions of a transmembrane domain; pcDNA5/FRT construct co-transfected with pOG44
T1 sequence (Q8TE23 20-839): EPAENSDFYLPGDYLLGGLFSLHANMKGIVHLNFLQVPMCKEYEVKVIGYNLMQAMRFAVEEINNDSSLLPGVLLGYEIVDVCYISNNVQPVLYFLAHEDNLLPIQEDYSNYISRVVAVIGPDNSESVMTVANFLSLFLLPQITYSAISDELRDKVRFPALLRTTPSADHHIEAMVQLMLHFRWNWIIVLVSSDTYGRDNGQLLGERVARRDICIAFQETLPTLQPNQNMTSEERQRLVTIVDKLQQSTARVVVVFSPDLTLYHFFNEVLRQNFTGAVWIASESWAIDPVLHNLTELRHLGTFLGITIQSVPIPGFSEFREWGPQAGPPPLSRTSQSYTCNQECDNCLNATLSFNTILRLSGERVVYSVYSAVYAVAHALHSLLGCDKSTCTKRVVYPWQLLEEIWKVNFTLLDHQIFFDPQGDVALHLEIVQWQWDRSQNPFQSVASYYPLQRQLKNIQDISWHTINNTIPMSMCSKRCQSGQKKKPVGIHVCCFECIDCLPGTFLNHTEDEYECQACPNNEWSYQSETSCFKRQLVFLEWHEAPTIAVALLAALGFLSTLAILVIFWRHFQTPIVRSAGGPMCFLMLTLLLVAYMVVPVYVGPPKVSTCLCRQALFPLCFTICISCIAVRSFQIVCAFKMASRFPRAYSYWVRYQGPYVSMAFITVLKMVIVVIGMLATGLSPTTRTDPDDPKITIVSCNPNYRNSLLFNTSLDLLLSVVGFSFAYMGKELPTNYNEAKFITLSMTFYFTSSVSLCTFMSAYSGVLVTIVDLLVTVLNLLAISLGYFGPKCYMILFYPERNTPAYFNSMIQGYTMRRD
T1 sequence (Q7RTX0 21-852): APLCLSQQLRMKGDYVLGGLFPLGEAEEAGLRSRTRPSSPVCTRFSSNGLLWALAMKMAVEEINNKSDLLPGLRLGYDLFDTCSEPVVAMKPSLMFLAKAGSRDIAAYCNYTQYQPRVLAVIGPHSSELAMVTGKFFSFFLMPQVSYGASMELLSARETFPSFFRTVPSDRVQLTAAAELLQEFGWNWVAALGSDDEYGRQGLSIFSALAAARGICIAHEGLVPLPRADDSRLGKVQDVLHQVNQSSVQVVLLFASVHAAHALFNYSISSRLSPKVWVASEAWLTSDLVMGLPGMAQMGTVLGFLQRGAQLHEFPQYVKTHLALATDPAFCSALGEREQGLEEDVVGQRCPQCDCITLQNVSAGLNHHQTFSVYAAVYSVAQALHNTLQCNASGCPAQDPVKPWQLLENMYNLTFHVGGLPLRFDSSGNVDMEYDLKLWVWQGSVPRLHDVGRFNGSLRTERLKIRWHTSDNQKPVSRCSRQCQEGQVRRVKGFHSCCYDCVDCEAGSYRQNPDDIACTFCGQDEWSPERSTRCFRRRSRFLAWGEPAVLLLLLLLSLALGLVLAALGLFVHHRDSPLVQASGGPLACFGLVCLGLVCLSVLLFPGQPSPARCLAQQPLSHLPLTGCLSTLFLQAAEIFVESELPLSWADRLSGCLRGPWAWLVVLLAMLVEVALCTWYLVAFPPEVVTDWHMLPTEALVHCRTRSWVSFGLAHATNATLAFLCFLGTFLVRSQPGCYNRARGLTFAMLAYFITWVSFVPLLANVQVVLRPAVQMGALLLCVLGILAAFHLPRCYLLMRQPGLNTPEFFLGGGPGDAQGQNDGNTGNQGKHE
Assay: automated fluorescent calcium imaging (Fluo-4 AM, FlexStation 3) of sweet taste receptor-expressing cells
Format: cell-based
Details: for Change amount in fluorescent intensity (ΔF): 27° C., to 100 seconds
Description: After cultured at 37° C. for 24 hours, the medium was removed, and replaced with 50 μl of a HEPES buffer, and […] of a HEPES buffer containing a fluorescent calcium indicator (Fluo-4 AM attached to Molecular Devices, FLIPR Ca 4 Assay Kit) was further added. Then, this was incubated at 27° C. for 45 minutes to prepare a cell to be subjected to automated fluorescent imaging. […]
In the same manner as that described above, […] subjected to automated fluorescent imaging, so that a final concentration of sucrose became a concentration described in Table 2, a HEPES buffer containing conc. neohesperidin dihydrochalcone was further added so that a final concentration of neohesperidin dihydrochalcone became 2 v/v %, stimulation was performed at 27° C., a fluorescent reaction (excitation at 485 nm, fluorescence at 525 nm) from immediately after addition of the solution to after 100 seconds was measured by using FlexStation 3 (Molecular Devices), and a response of a sweet taste receptor-expressing cell when neohesperidin dihydrochalcone was added to sucrose was quantitated. The vertical axis of FIG. 3 is a maximum (ΔF) of a change amount in a fluorescent intensity between immediately after stimulation and after 100 seconds from stimulation, that is, a response intensity of a cell, and the horizontal axis indicates a sucrose concentration (mM) as expressed by logarithm.

With `OC[C@H]1O[C@@](CO)(O[C@H]2O[C@H](CO)[C@@H](O)[C@H](O)[C@H]2O)[C@@H](O)[C@@H]1O` [Sucrose, sucrose] the “Change amount in fluorescent intensity (ΔF)” value (“Change amount … (ΔF)” for short) (sucrose 3.125 mM alone) was 4.2, the “Change amount … (ΔF)” value (sucrose 6.25 mM alone) was 4.6 and the “Change amount … (ΔF)” value (sucrose 12.5 mM alone) was 4.1. The “Change amount … (ΔF)” value (sucrose 25 mM alone) was 5.7, the “Change amount … (ΔF)” value (sucrose 50 mM alone) was 9.2 and the “Change amount … (ΔF)” value (sucrose 100 mM alone) was 23.3. The “Change amount … (ΔF)” value (sucrose 200 mM alone) was 34.9 and the “concentration below which a response of a sweet taste receptor cell is not observed” value (sucrose alone) was “around 50 mM”.

For `COC(=O)[C@H](Cc1ccccc1)NC(=O)[C@@H](N)CC(=O)O` [Aspartame, aspartame] (H-Asp-Phe-OMe), the “Change amount … (ΔF)” value (aspartame 0.167 mM alone) was 6.568, the “Change amount … (ΔF)” value (aspartame 0.333 mM alone) was 12.578 and the “Change amount … (ΔF)” value (aspartame 0.667 mM alone) was 33. For the same compound, the “Change amount … (ΔF)” value (aspartame 2 mM alone) was 72.005.

`O=C1NS(=O)(=O)c2ccccc21` [Saccharin, saccharin] was tested, and the “Change amount … (ΔF)” value (saccharin 0.167 mM alone) was 7.609, the “Change amount … (ΔF)” value (saccharin 0.333 mM alone) was 22.936 and the “Change amount … (ΔF)” value (saccharin 0.667 mM alone) was 56.59. For the same compound, the “Change amount … (ΔF)” value (saccharin 2 mM alone) was 86.194.

Source: patent publication US20130041142A1, “HUMAN SWEET TASTE RECEPTOR-ACTING SWEET TASTE REGULATING SUBSTANCE TO SWEET TASTE SUBSTANCE” (priority 2009, published 2013)
